Reference: patent US6562850B1, “Methods of synthesizing sultams and anti-viral compositions” (The University of Tennessee Research Corporation, priority 1998, dated 2003)

Tests used:
[1] = test system: HIV-1; assay: anti-HIV-1 activity, National Cancer Institute (Weislow) protocol; assay type: cell-based; conditions: for IC50: IC50 beside EC50 and TI50 (not further defined in the patent); for Act.: activity class as per the NCI protocol
[2] = Human immunodeficiency virus 1, NCI Weislow protocol

CN1[C@@H](c2ccc(O)cc2)c2ccccc2S1(=O)=O [Compound 21, (+)-4-[(3S)-2-Methyl-1,1-dioxo-2,3-dihydrobenzo[d]isothiazol-3-yl]phenol]
melting point: 178 to 180 °C | IC50 [1, 2]: > 200 µM | Act. [1]: I

CN1[C@H](c2ccc(O)cc2)c2ccccc2S1(=O)=O [Compound 22, (−)-4-[(3R)-2-Methyl-1,1-dioxo-2,3-dihydrobenzo-[d]-isothiazol-3-yl]phenol]
melting point: 178 to 179 °C | IC50 [1, 2]: > 200 µM | Act. [1]: I

(R,S)-2,5-Dimethyl-3-phenyl-2,3-dihydrobenzo[d]isothiazole 1,1-dioxide [Compound 47]
IC50 ([1]; NCI Weislow protocol): 156 µM | TI50 ([1]; NCI Weislow protocol, therapeutic index column): 5.03 | EC50 ([1]; anti-HIV-1 activity, NCI Weislow protocol): 31 µM

(R,S)-4-(2-Methyl-1,1-dioxo-2,3-dihydrobenzo[d]isothiazol-3-yl)phenol [Compound 20]
IC50 ([1]; NCI Weislow protocol): > 200 µM | Act. [1]: I
